# Assays:
# Ts65Dn mice = experiment: Novel object recognition (NOR) test in Ts65Dn mice; format: in vivo, mouse; settings: daily i.p. treatment for 19 days
# Procedure: (§1) Behavioural studies were conducted in 12- to 20-week-old male animals. All assessments were scored blind to genotype and treatment, as recommended by the ARRIVE guidelines ([Karp et al., 2015]; [Kilkenny et al., 2010]). […] The final formulation was prepared just prior to use as a 2 mg/ml solution diluted in PEG300/water (50/45), to reach a final DMSO/PEG300/water 5/50/45 (v/v/v) mix. Treated animals received a daily dose (5, 12 or 19 days) of this formulation by i.p. injection of 20 mg/kg/day. Nontreated animals received the same formulation without L41.
# (§2) The NOR task is based on the innate tendency of rodents to differentially explore a novel object over a familiar one ([Ennaceur and Delacour, 1988]). Day 1 was a habituation session. Mice freely explored the apparatus, a white circular arena (53 cm diameter) placed in a dimly lit testing room (40 lux). On day 2, the acquisition phase, mice were free to explore two identical objects for 10 min. Mice were then returned to their home cage for a 24 h retention interval. […] Object exploration was manually scored and defined as the orientation of the nose to the object at a distance <1 cm. For the retention phase, the percent of time spent exploring familiar versus novel objects was calculated to assess memory performance.
# CLK2 = CLK2 (Mus musculus, UniProt O35491); experiment: Recombinant protein kinase assay, CLK2; format: biochemical
# CLK1 = CLK1 (Mus musculus, UniProt P22518); experiment: Recombinant protein kinase assay, CLK1; format: biochemical
# Dp1Yey mice [1] = experiment: Novel object recognition (NOR) test in Dp1Yey mice; format: in vivo, mouse; settings: daily i.p. treatment for 19 days
# Procedure: as §1, §2
# CK2 = molecular target: T1, CK2 (Homo sapiens, UniProt P68400); experiment: Recombinant protein kinase assay, CK2; format: biochemical; settings: 15 µM ATP
# T1 construct: Cochet
# [2] = Pharmacokinetics and brain biodistribution of L41 after acute i.p. injection; format: in vivo; settings: mouse, ip
# Procedure: To investigate the importance of DYRK1A in cognitive deficits shown by transgenic mouse models of DS, we used a series of low molecular weight pharmacological inhibitors, collectively known as leucettines ([Debdab et al., 2011]; [Tahtouh et al., 2012]; T. Tahtouh, unpublished).
# re S1. Pharmacokinetics and brain biodistribution of L41 following acute intra-
# zoom on the first 8 hours.
# Disease Models & Mechanisms • Supplementary information
# CLK3 = CLK3 (Mus musculus, UniProt O35492); experiment: Recombinant protein kinase assay, CLK3; format: biochemical
# DYRK1A [3] = molecular target: T2, DYRK1A (Mus musculus, UniProt Q61214); experiment: Brain DYRK1A catalytic activity after treatment, Tg(Dyrk1a) mice; format: in vivo
# T2 construct: DYRK1A was purified from brain extracts by immunoprecipitation; from tissue; host or cells: mouse brain (wt, Tg(Dyrk1a), Ts65Dn)
# Procedure: (§3) Protein kinase assays to measure the catalytic activity of DYRK1A in the brains of the animals treated with or without drugs were performed as follows: frozen half brains were homogenized in lysis buffer (1.2 ml/half brain) using Precellys® homogenizer tubes. After centrifugation at 2800 g for 2×15 s, 1 mg brain extract was incubated with 2 µg DYRK1A (H00001859 M01, Interchim) or GSK3-β (MBS8508391, Emelca Bioscience, France) antibodies at 4°C for 1 h under gentle rotation. Then, 20 µl protein G agarose beads (Thermo Fisher Scientific, France), previously washed three times with bead buffer (50 mM Tris pH 7.4, 5 mM NaF, 250 mM NaCl, 5 mM EDTA, 5 mM EGTA, 0.1% Nonidet P-40 and protease inhibitor cocktail from Roche, France), were added to the mix and gently rotated at 4°C for 30 min. After a 1 min spin at 10,000 g and removal of the supernatant, the pelleted immune complexes were washed three times with bead buffer, and a last time with Buffer C (60 mM β-glycerophosphate, 30 mM p-nitrophenolphosphate, 25 mM Mops pH 7.2, 5 mM EGTA, 15 mM MgCl2, 2 mM dithiothreitol, 0.1 mM sodium orthovanadate, 1 mM phenylphosphate, protease inhibitor cocktail). DYRK1A or GSK-3 immobilized on beads were assayed in buffer C as described in the Supplementary Materials and Methods with Woodtide ([…]) (1.5 µg/assay) or GSK3-tide ([…]pSED-EEE, where pS stands for phosphorylated serine) as substrates.
# Dp1Yey mice [4] = experiment: Resting state fMRI brain functional connectivity, Dp1Yey mice; settings: L41-treated vs vehicle-treated Dp1Yey mice
# DYRK1A [5] = molecular target: T2, DYRK1A; experiment: Brain DYRK1A catalytic activity after treatment, wt mice; format: in vivo; settings: 19 days daily i.p.
# Procedure: as §3
# DYRK1A [6] = molecular target: T2, DYRK1A; experiment: In vitro kinase activity of DYRK1A immunopurified from mouse brains; format: biochemical; settings: DYRK1A from untreated wt, Tg(Dyrk1a) and Ts65Dn brains, increasing concentrations
# Tg(Dyrk1a) mice = experiment: Y-maze working memory in Tg(Dyrk1a) mice; format: in vivo, mouse; settings: L41-treated Tg(Dyrk1a) mice
# wt mice = experiment: Novel object recognition (NOR) test in wt mice; format: in vivo, mouse; settings: 20 mg/kg daily i.p., 5, 12 or 19 days
# Procedure: as §1, §2
# Sequence of CLK2 (O35491 whole entry): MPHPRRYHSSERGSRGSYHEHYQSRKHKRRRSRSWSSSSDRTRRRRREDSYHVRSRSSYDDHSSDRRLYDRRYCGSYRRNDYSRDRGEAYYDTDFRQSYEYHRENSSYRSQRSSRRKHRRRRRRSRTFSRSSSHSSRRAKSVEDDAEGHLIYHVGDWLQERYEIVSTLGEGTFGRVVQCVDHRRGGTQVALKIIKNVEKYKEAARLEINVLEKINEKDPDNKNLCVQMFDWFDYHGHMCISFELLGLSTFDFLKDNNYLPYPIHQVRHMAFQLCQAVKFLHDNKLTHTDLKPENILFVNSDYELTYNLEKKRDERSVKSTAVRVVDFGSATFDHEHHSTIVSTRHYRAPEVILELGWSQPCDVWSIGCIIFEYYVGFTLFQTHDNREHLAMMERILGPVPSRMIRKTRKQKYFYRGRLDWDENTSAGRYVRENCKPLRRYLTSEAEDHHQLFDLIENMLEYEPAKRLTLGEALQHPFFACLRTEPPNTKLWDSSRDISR
# Sequence of CLK1 (P22518 whole entry): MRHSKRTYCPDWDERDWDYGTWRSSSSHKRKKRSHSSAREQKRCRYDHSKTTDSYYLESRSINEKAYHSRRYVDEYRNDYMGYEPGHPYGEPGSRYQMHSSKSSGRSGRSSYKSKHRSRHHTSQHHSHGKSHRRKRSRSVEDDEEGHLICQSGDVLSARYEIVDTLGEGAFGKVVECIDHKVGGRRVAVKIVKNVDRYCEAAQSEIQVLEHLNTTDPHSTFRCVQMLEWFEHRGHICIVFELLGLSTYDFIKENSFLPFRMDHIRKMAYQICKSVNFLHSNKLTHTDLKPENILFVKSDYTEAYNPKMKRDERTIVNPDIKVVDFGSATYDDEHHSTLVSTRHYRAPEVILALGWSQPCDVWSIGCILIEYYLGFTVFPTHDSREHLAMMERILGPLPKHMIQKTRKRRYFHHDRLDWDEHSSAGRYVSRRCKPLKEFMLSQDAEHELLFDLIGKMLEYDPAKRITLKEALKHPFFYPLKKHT
# Sequence of CLK3 (O35492 whole entry): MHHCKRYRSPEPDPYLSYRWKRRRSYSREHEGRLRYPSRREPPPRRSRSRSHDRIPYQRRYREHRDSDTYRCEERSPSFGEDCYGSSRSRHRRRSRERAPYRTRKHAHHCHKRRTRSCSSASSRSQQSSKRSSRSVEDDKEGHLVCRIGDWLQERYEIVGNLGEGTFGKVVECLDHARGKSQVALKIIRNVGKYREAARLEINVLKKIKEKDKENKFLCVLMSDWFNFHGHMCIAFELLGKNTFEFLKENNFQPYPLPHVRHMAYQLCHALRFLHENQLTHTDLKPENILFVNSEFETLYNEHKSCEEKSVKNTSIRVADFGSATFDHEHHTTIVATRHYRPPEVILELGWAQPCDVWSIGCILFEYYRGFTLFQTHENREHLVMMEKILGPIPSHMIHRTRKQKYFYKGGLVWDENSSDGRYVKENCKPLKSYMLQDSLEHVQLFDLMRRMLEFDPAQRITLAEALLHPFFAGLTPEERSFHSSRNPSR
# T1 sequence (P68400 whole entry): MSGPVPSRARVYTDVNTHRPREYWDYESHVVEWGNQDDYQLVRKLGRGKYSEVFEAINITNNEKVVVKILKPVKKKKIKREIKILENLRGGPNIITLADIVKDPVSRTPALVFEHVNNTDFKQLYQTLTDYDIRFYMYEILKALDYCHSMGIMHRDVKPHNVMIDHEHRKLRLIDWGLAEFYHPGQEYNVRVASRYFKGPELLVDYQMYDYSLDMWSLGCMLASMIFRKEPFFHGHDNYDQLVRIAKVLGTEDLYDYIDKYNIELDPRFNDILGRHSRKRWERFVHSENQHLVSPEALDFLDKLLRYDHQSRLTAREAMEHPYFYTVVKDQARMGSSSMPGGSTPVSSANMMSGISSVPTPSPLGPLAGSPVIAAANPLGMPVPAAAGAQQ
compound,measurement,setting,value
O=C1NC(Nc2ccccc2)=N/C1=C\c1ccc2c(c1)OCO2 [L41],NOR test outcome,Ts65Dn mice,rescue
same,IC50,CLK2,130 nM
same,IC50,CLK1,23 nM
same,NOR test outcome,Dp1Yey mice [1],rescue
same,IC50,CK2,510 nM
same,half-life,"[2]; Tg(Dyrk1a) transgenic and wild-type (wt) mice, plasma",~45 min
same,Blood brain barrier crossing,[2]; in vivo,able to cross the blood brain barrier
same,Differences in pharmacokinetics or biodistribution between transgenic and wt mice,[2]; in vivo,No differences
same,L41 in brain extracts,[2]; in vivo,essentially undetectable
same,Time of maximum brain concentration,[2]; in vivo,20 min
same,Time to elimination from brain after the maximum brain concentration,[2]; in vivo,2 h
same,IC50,CLK3,1200 nM
same,Tg(Dyrk1a) brain DYRK1A activity,DYRK1A [3]; 24 h after the last treatment of 19 days,normalized to wt levels
same,Tg(Dyrk1a) brain DYRK1A activity,DYRK1A [3]; 48 h after the last treatment of 19 days,no more effects
same,DYRK1A inhibition in Tg(Dyrk1a) mice brains,DYRK1A [3]; 5 days of treatment,not significant
same,Tg(Dyrk1a) brain DYRK1A activity,DYRK1A [3]; 12 days of treatment,normalized
same,Reduction of brain DYRK1A activity,"DYRK1A [3]; 19 days daily i.p., normalized to GSK-3α/β activity",~30%
same,Tg(Dyrk1a) brain DYRK1A activity,DYRK1A [3]; 19 days of treatment,normalized
same,Effect on altered default mode network (DMN) pattern,Dp1Yey mice [4],rescued
same,Effect on brain DYRK1A activity,DYRK1A [5],did not reduce
same,In vitro inhibition of brain DYRK1A,DYRK1A [6],almost fully inhibited
same,Effect on working memory (Y-maze),Tg(Dyrk1a) mice,no restoring effect
same,Effect on NOR performance of wt animals,wt mice,no effect

# Source: paper PMC6176987, “Correction of cognitive deficits in mouse models of Down syndrome by a pharmacological inhibitor of DYRK1A” (Disease Models & Mechanisms, 2018)
